Blank lines part the entries; values can stand above or below the molecule they belong to.
Biological target: T1, Bcl-2 protein (Recombinant Human Bcl-2 Protein) (Homo sapiens, UniProt P10415)
T1 construct: purchased Novus NBP2-34889
Assay: Binding evaluation of mixture library compounds to Bcl-2 using AS-MS (affinity selection mass spectrometry)
Details: for ASMS ratio (%) n = 1: replicate n = 1; for ASMS ratio (%) n = 1 / ASMS ratio (%) n = 2: ASMS Ratio(%)=(A−C)/B×100; for ASMS ratio (%) n = 2: replicate n = 2
How it was run: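 Pooled library of ~1200 compounds ([…] each, final) incubated with recombinant human Bcl-2 (20 μM final) in Tris-HCl pH 7.4, NaCl, Tween-20, DTT buffer, dark, 23° C., 1 h. Bound fraction recovered by SEC spin column, organic extraction, reversed-phase LC/MS. ASMS Ratio (%) = (A−C)/B×100 versus protein-free standard and SEC blank.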

[1] = AS-MS, mixture of 1200 compounds, Bcl-2
[2] = AS-MS on the mixture of 1200 library compounds

T1 sequence (P10415 whole entry): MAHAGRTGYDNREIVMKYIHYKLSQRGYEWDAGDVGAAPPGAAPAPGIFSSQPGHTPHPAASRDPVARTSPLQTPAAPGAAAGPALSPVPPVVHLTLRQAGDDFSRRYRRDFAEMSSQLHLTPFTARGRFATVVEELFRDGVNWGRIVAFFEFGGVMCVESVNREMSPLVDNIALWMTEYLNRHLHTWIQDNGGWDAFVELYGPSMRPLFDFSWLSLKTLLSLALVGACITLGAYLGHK

ASMS ratio (%) (n = 1): −0.8% | ASMS ratio (%) (n = 2): 0.5%
Molecule: CCOc1cccc(-c2cc(CN3CCN(c4ccc(C(=O)NS(C)(=O)=O)cc4)CC3)cc(C(F)(F)F)c2)c1 [B2I061-01, 4-[4-[[3-(3-Ethoxyphenyl)-5-(trifluoromethyl)phenyl]methyl]piperazin-1-yl]-N-methylsulfonylbenzamide]

ASMS ratio (%) (n = 1): 6.6% | ASMS ratio (%) (n = 2): −7.8%
Molecule: CCOc1cccc(-c2ccc(C(C)N3CCN(c4ccc(C(=O)NS(=O)(=O)c5ccc(NCCSc6ccccc6)c(C(F)(F)F)c5)cc4)CC3)cc2)c1 (stereo not shown) [B2R097-01, 4-[4-[1-[4-(3-Ethoxyphenyl)phenyl]ethyl]piperazin-1-yl]-N-[4-(2-phenylsulfanylethylamino)-3-(trifluoromethyl)phenyl]sulfonylbenzamide]

ASMS ratio (%) n = 1 (AS-MS, mixture library, Bcl-2): 0.0% | ASMS ratio (%) n = 2 (AS-MS, mixture library, Bcl-2): 0.0%
Molecule: CCOc1cccc(-c2ccc(C(=O)N3CCN(c4ccc(C(=O)NS(C)(=O)=O)nn4)CC3)cc2C)c1 [B2I003-01, 6-[4-[4-(3-Ethoxyphenyl)-3-methylbenzoyl]piperazin-1-yl]-N-methylsulfonylpyridazine-3-carboxamide]

ASMS ratio (%) (n = 1): 3.9% | ASMS ratio (%) (n = 2): 0.0%
Molecule: CCOc1cncc(-c2cc(OC)c(CN3CCN(c4ccc(C(=O)NS(=O)(=O)c5ccc(NCCSc6ccccc6)c(C(F)(F)F)c5)cc4)CC3)c(OC)c2)c1 [B2R060-01, 4-[4-[[4-(5-Ethoxypyridin-3-yl)-2,6-dimethoxyphenyl]methyl]piperazin-1-yl]-N-[4-(2-phenylsulfanylethylamino)-3-(trifluoromethyl)phenyl]sulfonylbenzamide]

ASMS ratio (%) (n = 1): 0.0% | ASMS ratio (%) (n = 2): 0.0%
Molecule: CCOc1cncc(-c2cc(CN3CCN(c4ccc(C(=O)NS(C)(=O)=O)cc4)CC3)cc(C(F)(F)F)c2)c1 [B2I062-01, 4-[4-[[3-(5-Ethoxypyridin-3-yl)-5-(trifluoromethyl)phenyl]methyl]piperazin-1-yl]-N-methylsulfonylbenzamide]

ASMS ratio (%) (n = 1): 0.0% | ASMS ratio (%) (n = 2): 0.0%
Molecule: CCOc1cncc(-c2cc(CN3CCN(c4ccc(C(=O)NS(C)(=O)=O)nn4)CC3)cc(C(F)(F)F)c2)c1 [B2I088-01, 6-[4-[[3-(5-Ethoxypyridin-3-yl)-5-(trifluoromethyl)phenyl]methyl]piperazin-1-yl]-N-methylsulfonylpyridazine-3-carboxamide]

ASMS ratio (%) n = 1 (AS-MS, mixture library, Bcl-2): 0.0% | ASMS ratio (%) n = 2 (AS-MS, mixture library, Bcl-2): 0.0%
Molecule: CCOc1cncc(-c2csc(CN3CCN(c4ccc(C(=O)NS(=O)(=O)CC56CC7CC(CC(C7)C5)C6)nn4)CC3)c2)c1 [B2A094-01, N-(1-Adamantylmethylsulfonyl)-6-[4-[[4-(5-ethoxypyridin-3-yl)thiophen-2-yl]methyl]piperazin-1-yl]pyridazine-3-carboxamide]

ASMS ratio (%) (n = 2): 0.0%
Molecule: CCOc1cccc(-c2csc(CN3CCN(c4ccc(C(=O)NS(=O)(=O)C(C)(C)C)nn4)CC3)c2)c1 [B2L093-01, N-tert-Butylsulfonyl-6-[4-[[4-(3-ethoxyphenyl)thiophen-2-yl]methyl]piperazin-1-yl]pyridazine-3-carboxamide]

Molecule: 6-[4-[[3-(5-Ethoxypyridin-3-yl)-5-(trifluoromethyl)phenyl]methyl]piperazin-1-yl]-N-propylpyridazine-3-carboxamide [B1M029-01]
ASMS ratio (%) n = 1 [1]: 3.0% | ASMS ratio (%) n = 2 [1]: −0.6%

ASMS ratio (%) n = 1 [2]: −0.1% | ASMS ratio (%) n = 2 [2]: −0.9%
Molecule: CCOc1cccc(-c2ccccc2CCC(=O)N2CCN(c3ccc(C(=O)N(CC)CC)nn3)CC2)c1 [B4J011-01, 6-[4-[3-[2-(3-Ethoxyphenyl)phenyl]propanoyl]piperazin-1-yl]-N,N-diethylpyridazine-3-carboxamide]

ASMS ratio (%) (n = 1): −1.2% | ASMS ratio (%) (n = 2): −1.9%
Molecule: CCOc1cccc(-c2ccccc2CN2CCN(c3ccc(C(=O)NS(C)(=O)=O)nn3)CC2)c1 [B2I071-01, 6-[4-[[2-(3-Ethoxyphenyl)phenyl]methyl]piperazin-1-yl]-N-methylsulfonylpyridazine-3-carboxamide]

ASMS ratio (%) (n = 1): 0.0% | ASMS ratio (%) (n = 2): 0.0%
Molecule: CCOc1cccc(-c2ccc(C(C)N3CCN(c4ccc(C(=O)NS(=O)(=O)CCC(F)(F)F)cc4)CC3)c(F)c2)c1 (stereo not shown) [B2N099-01, 4-[4-[1-[4-(3-Ethoxyphenyl)-2-fluorophenyl]ethyl]piperazin-1-yl]-N-(3,3,3-trifluoropropylsulfonyl)benzamide]

ASMS ratio (%) n = 1 [2]: 4.5% | ASMS ratio (%) n = 2 [2]: 2.2%
Molecule: CCOc1cccc(-c2ccc(CN3CCN(c4ccc(C(=O)Nc5ccc(OC)cc5)nn4)CC3)c3ccccc23)c1 [B1O091-01]

Molecule: 6-[4-[[2-[2-(3-Ethoxyphenyl)ethynyl]phenyl]methyl]piperazin-1-yl]-N-propylpyridazine-3-carboxamide [B1M053-01]
ASMS ratio (%) n = 1 [1]: −3.0% | ASMS ratio (%) n = 2 [1]: −3.1%

Molecule: CCOc1cncc(-c2cc(CN3CCN(c4ccc(C(=O)N(CC)CC)cc4)CC3)cc(C(F)(F)F)c2)c1 [B4J062-01, 4-[4-[[3-(5-Ethoxypyridin-3-yl)-5-(trifluoromethyl)phenyl]methyl]piperazin-1-yl]-N,N-diethylbenzamide]
ASMS ratio (%) n = 1 (AS-MS, mixture library, Bcl-2): 0.0% | ASMS ratio (%) n = 2 (AS-MS, mixture library, Bcl-2): 0.0%

ASMS ratio (%) n = 1 [2]: 3.2% | ASMS ratio (%) n = 2 [2]: −2.2%
Molecule: CCOc1cccc(-c2cc(CN3CCN(c4ccc(C(=O)Nc5ccc(OC)cc5)nn4)CC3)cc(OCC)c2)c1 [B1O081-01, 6-[4-[[3-Ethoxy-5-(3-ethoxyphenyl)phenyl]methyl]piperazin-1-yl]-N-(4-methoxyphenyl)pyridazine-3-carboxamide]

ASMS ratio (%) (n = 1): 24.0% | ASMS ratio (%) (n = 2): 0.0%
Molecule: CCOc1cccc(-c2ccc(CN3CCN(c4ccc(C(=O)NS(=O)(=O)c5ccc(NCCSc6ccccc6)c(C(F)(F)F)c5)nn4)CC3)cc2C)c1 [B2R073-01, 6-[4-[[4-(3-Ethoxyphenyl)-3-methylphenyl]methyl]piperazin-1-yl]-N-[4-(2-phenylsulfanylethylamino)-3-(trifluoromethyl)phenyl]sulfonylpyridazine-3-carboxamide]

ASMS ratio (%) n = 1 [1]: 6.6% | ASMS ratio (%) n = 2 [1]: −1.3%
Molecule: CCOc1cccc(-c2ccc(CN3CCN(c4ccc(C(=O)NCC56CC7CC(CC(C7)C5)C6)nn4)CC3)cc2F)c1 [B1A077-01, N-(1-Adamantylmethyl)-6-[4-[[4-(3-ethoxyphenyl)-3-fluorophenyl]methyl]piperazin-1-yl]pyridazine-3-carboxamide]

Molecule: 4-[4-[[2-(3-Ethoxyphenyl)phenyl]methyl]piperazin-1-yl]-N-propylbenzamide [B1M040-01]
ASMS ratio (%) n = 1 [1]: −0.3% | ASMS ratio (%) n = 2 [1]: 0.0%

ASMS ratio (%) n = 1 [2]: 2.8% | ASMS ratio (%) n = 2 [2]: 2.1%
Molecule: CCOc1cncc(C#Cc2cc(C(=O)N3CCN(c4ccc(C(=O)Nc5ccc(OC)cc5)cc4)CC3)cc(C(F)(F)F)c2)c1 [B1O042-01, 4-[4-[3-[2-(5-Ethoxypyridin-3-yl)ethynyl]-5-(trifluoromethyl)benzoyl]piperazin-1-yl]-N-(4-methoxyphenyl)benzamide]

ASMS ratio (%) (n = 1): −0.2% | ASMS ratio (%) (n = 2): 1.0%
Molecule: CCOc1cncc(-c2ccccc2CCC(=O)N2CCN(c3ccc(C(=O)NS(=O)(=O)CCC(F)(F)F)cc3)CC2)c1 [B2N034-01, 4-[4-[3-[2-(5-Ethoxypyridin-3-yl)phenyl]propanoyl]piperazin-1-yl]-N-(3,3,3-trifluoropropylsulfonyl)benzamide]

ASMS ratio (%) n = 1 [2]: 6.3% | ASMS ratio (%) n = 2 [2]: 2.5%
Molecule: CCOc1cccc(-c2cc(CN3CCN(c4ccc(C(=O)N(C)CC56CC7CC(CC(C7)C5)C6)cc4)CC3)cc(OC(C)C)c2)c1 [B3A057-01, N-(1-Adamantylmethyl)-4-[4-[[3-(3-ethoxyphenyl)-5-propan-2-yloxyphenyl]methyl]piperazin-1-yl]-N-methylbenzamide]

Molecule: CCOc1cncc(-c2ccc(C(=O)N3CCN(c4ccc(C(=O)N(CC)CC)cc4)CC3)cc2F)c1 [B4J028-01, 4-[4-[4-(5-Ethoxypyridin-3-yl)-3-fluorobenzoyl]piperazin-1-yl]-N,N-diethylbenzamide]
ASMS ratio (%) n = 1 [2]: −1.0% | ASMS ratio (%) n = 2 [2]: 0.9%

ASMS ratio (%) n = 1 [1]: 3.5% | ASMS ratio (%) n = 2 [1]: −1.4%
Molecule: CCOc1cccc(C#Cc2ccccc2CN2CCN(c3ccc(C(=O)NCC(F)(F)F)cc3)CC2)c1 [B1K069-01, 4-[4-[[2-[2-(3-Ethoxyphenyl)ethynyl]phenyl]methyl]piperazin-1-yl]-N-(2,2,2-trifluoroethyl)benzamide]

Molecule: CCOc1cncc(-c2cc(CN3CCN(c4ccc(C(=O)N(CC)CC)cc4)CC3)cc(OC(C)C)c2)c1 [B4J058-01, 4-[4-[[3-(5-Ethoxypyridin-3-yl)-5-propan-2-yloxyphenyl]methyl]piperazin-1-yl]-N,N-diethylbenzamide]
ASMS ratio (%) n = 1 [2]: 2.2% | ASMS ratio (%) n = 2 [2]: 0.5%

ASMS ratio (%) n = 1 (AS-MS, mixture library, Bcl-2): 0.0% | ASMS ratio (%) n = 2 (AS-MS, mixture library, Bcl-2): 0.0%
Molecule: CCOc1cncc(-c2ccc(CN3CCN(c4ccc(C(=O)NS(=O)(=O)CC56CC7CC(CC(C7)C5)C6)cc4)CC3)cc2F)c1 [B2A052-01, N-(1-Adamantylmethylsulfonyl)-4-[4-[[4-(5-ethoxypyridin-3-yl)-3-fluorophenyl]methyl]piperazin-1-yl]benzamide]

Molecule: 4-[4-[4-(3-Ethoxyphenyl)naphthalene-1-carbonyl]piperazin-1-yl]-N-propylbenzamide [B1M073-01]
ASMS ratio (%) n = 1 [1]: 0.4% | ASMS ratio (%) n = 2 [1]: −0.5%

ASMS ratio (%) (n = 1): 0.0% | ASMS ratio (%) (n = 2): 0.0%
Molecule: CCOc1cncc(-c2cc(CN3CCN(c4ccc(C(=O)NS(C)(=O)=O)nn4)CC3)cc(OC(F)(F)F)c2)c1 [B2I090-01, 6-[4-[[3-(5-Ethoxypyridin-3-yl)-5-(trifluoromethoxy)phenyl]methyl]piperazin-1-yl]-N-methylsulfonylpyridazine-3-carboxamide]

Source: patent US20240132431A1, “METHOD FOR ALKYLATING ACIDIC FUNCTIONAL GROUP” (Chugai Seiyaku Kabushiki Kaisha, priority 2021, published 2024)
